# Experimental data as given in US8541607B2, “Disulfide, sulfide, sulfoxide, and sulfone derivatives of cyclic sugars and uses thereof” (Lacer, S.A., priority 2003, dated 2013).
# How the values were obtained:
# [1] = tested on: Rats, left carotid artery thrombosis (FeCl3); assay: In vivo antithrombotic effect, FeCl3 carotid artery thrombosis; design: species or system rat; conditions: single oral dose of 100 mg/Kg; no occlusion during 60 min after FeCl3 patch
# Method: The method used is substantially the same as described by Kurz (Kurz K. D., et al., Thromb. Res. 1990, 60:269-280) and modified by Feuerstein (Feuerstein G. Z., et al., Artherioscler. Thromb. Vase. Biol. 1999, 19: 2554-25562).
# Rats received a single oral dose of 100 mg/Kg of the compounds.
# Forty-five minutes after dosing rats were anaesthetized with sodium pentobarbital (40 mg/kg, i.p.) and they were placed later dorsally on a heated (37° C.) surgical board.
# The left carotid artery was isolated and a Parafilm 4 sheet (7×20 mm, American National Can) was placed under it. An electromagnetic sounding of flow (Transonic Systems Inc.) was placed on the artery to measure blood flow.
# Sixty minutes after product administration, a paper patch saturated with FeCl3 solution (70%) was placed (and not removed for the whole duration of the experiment) on the left carotid artery downstream from the sounding of flow to initiate thrombosis. The blood flow was controlled during the 60 min later to the application of the patch in the artery.
# The vessel was considered totally occluded by the thrombus formed when no blood flow was detected (0.0 ml/min). In this model, thrombus formation usually takes place within 15 to 20 minutes in non-treated animals.
# [2] = tested on: platelets (Human Platelet Rich Plasma); assay: In vitro inhibition of ADP-induced platelet aggregation; assay type: cell-based; conditions: submaximal ADP (1-4 μM), mean ± s.d.
# Method: The method used in the assays is substantially the same as described in following reference: • * Sales, E., at al., Br. J. Pharmacol. 112 (1994); 1071-1076.
# The compounds are tested at four different concentrations, using platelet rich plasma from not less than 6 different healthy human donors. The results obtained are compared to those from 5-isosorbide mononitrate, which is used as reference product.
# The results are shown in table 2 and are expressed as IC50 (inhibitory concentration 50), which is the concentration of each of the tested compounds yielding an inhibition equal to 50% of the aggregation obtained with a submaximal concentration (1-4 μM) of ADP (a submaximal concentration of ADP is the minimal amount of ADP which produces the maximal aggregation).
# LDL = assay: Inhibition of LDL oxidation induced by haemin and H2O2 (conjugated dienes, 234 nm); assay type: biochemical, human; conditions: compounds at 10 μM; 2.5 μM haemin and 5 μM H2O2; mean ± s.e.m.
# Excerpt: The method used in the assays to determine the effect of the compounds on LDL oxidation is substantially the same as described in the following references: • Sprenger T., et al., Chem. Phys. Lipids 1998; 91:39-52 • Lynch S. M., et al., Biochim. Biophys. Acta 2000; 1485:11-22 • Pedreño J., et al., Thromb. Res. 2000; 99: 51-60.
# The method used in the assays to isolate LDL particles from fresh human plasma is substantially the same as described in Pedreño J., et al., Atherosclerosis 2001; 155: 99-112.
# Oxidative modification of low-density lipoprotein (LDL) is currently believed to be a central event it the development of atherosclerotic cardiovascular disease. The exposition of LDL to globin-free haemin (the complex of ferric ion (Fe^3+) with protoporphyrin IX), derived from the haemoglobin in circulating erythrocytes, serves as a physiological source of pro-oxidant Fe^3+ capable to promoting LDL oxidation. The compounds were added in vitro to determine their inhibitory activity on LDL oxidation induced by haemin and H2O2. LDL at a final protein concentration of 0.2 mg/ml was incubated in the presence of 2.5 μM haemin and 5 μM H202. Oxidative modification of LDL particles was assessed by measurement of conjugated dienes. Experimental samples were incubated at 37° C. and the increase in absorbance at 234 nm was automatically recorded every 5 min for at least 5 h. The effect of compounds on the LDL oxidation induced by haemin was tested at 7 different concentrations using LDL preparations from 7 different healthy donors.
# [3] = tested on: U937 monocyte adhesion to activated HMEC-1 human endothelial cells; assay: Inhibition of U937 monocyte adhesion to TNF-α activated HMEC-1; assay type: cell-based; conditions: HMEC-1 activated by TNF-α (50 ng/ml); mean ± s.e.m.
# Excerpt: The methods used in the assays to determine the effect of the compounds on platelet and monocyte adhesion to human endothelial cells are substantially the same as described in the following references: • Del Maschio A. et al., J Cell Biol 1996; 135: 497-510 • Bombeli T. et al., Blood 1999; 93: 3831-3838 • Colomé C. et al; Atherosclerosis 2000; 149: 295-302; and • Martin-Satue M. at al; British Journal of Cancer 1999; 80; 1169-1174
# The adhesion of the U937-monocyte cells to confluent human microvasculature endothelial cells (HMEC-1) activated by means of TNF-α (50 ng/ml) and the platelets to human umbilical endothelial cells (HUVEC) were the methods used to determine the inhibitory effect of compounds on cellular adhesion. The adhesion of monocytes previously labeled with calcein-2M (Molecular Probes) to HMEC-1 activated by TNF-α, was assessed by determination of the associated-cell fluorescence. The adhesion of washed human platelets previously labeled with MoAb against CD36-FITC to activated-HUVEC (50 μg/ml of LDL minimally modified, LDLmm) was determined by Laser Scanning Cytometry (LSC, Olympus) determining the associated-cell fluorescence. Results are expressed as the percentage of inhibition respect to control (adhesion of the cells in the absence of compounds).
# [4] = tested on: heparinized plasma (plasma lipoproteins); assay: Inhibition of plasma oxidation induced by Cu2+ (absorbance 234 nm); assay type: biochemical; conditions: compounds at 10 μM; 50 μM CuSO4; mean ± s.e.m.
# Method: The method used in the assays to determine the effect of compounds on the capacity of oxidation of the plasma is substantially the same as described in Spranger T. et al., Chem Phys Lipids 1998; 91: 39-52.
# Lipoprotein oxidation induced in vitro in plasma is expected to represent a relevant model of the lipoprotein oxidation in the arterial wall. Oxidation of plasma lipoproteins was assessed as the capacity of oxidation of heparinized plasma and was measured by spectrophotometry as in increase in absorbance at 234 nm. The compounds were added in vitro to determine their inhibitory activity over the capacity of oxidation of plasma induced by Cu^2+ (CuSO4). Heparinized plasma was diluted with phosphate-buffered saline solution (PBS) containing 0.16 M NaCl, and the oxidation was started by 50 μM CuSO4. Experimental samples were incubated at 37° C. and the increase in absorbance at 234 nm was automatically recorded every 15 min for at least 12 h. The effect of compounds over the capacity of oxidation of plasma induced by Cu^2+ was tested at 7 different concentrations using heparinizaded plasma from 7 different healthy donors.
SMILES,% of animals fully protected [1] [%],IC50 [2] [µM],% of increment of lag phase with respect to control (LDL oxidation) (LDL) [%],"% of inhibition to control, U937 monocyte adhesion [3] [%]",% of increment of lag phase with respect to control (plasma oxidation) [4] [%]
"CC(=O)S[C@H]1CO[C@H]2[C@@H]1OC[C@H]2O[N+](=O)[O-] [(12), 2-acetylthio-isosorbide-5-mononitrate]",71,89 ± 10,117 ± 56,15 ± 2,200 ± 10
"O=[N+]([O-])O[C@@H]1CO[C@H]2[C@@H]1OC[C@@H]2S [(1), 2-thioisosorbide 5-mononitrate]",100,110 ± 10,290 ± 8,30 ± 8,245 ± 26
